Test results from paper PMC4057637, “Efficacy of novel antibacterial compounds targeting histidine kinase YycG protein” (Applied Microbiology and Biotechnology, 2014).

Columns and labels:
[1] = tested on: S. epidermidis ATCC 35984; assay: Kinetics of killing planktonic S. epidermidis; assay type: cell-based; details: for effect on growth in initial treatment phase: 1/4MIC (0.38 μM) and 1/2MIC (0.75 μM), 2 to 6 h
Procedure: An overnight culture of S. epidermidis ATCC 35984 was inoculated into 20 ml of fresh MH broth at a 1:200 dilution (10^6 CFU/ml). […] Every 2 h, 100 μl of the culture was diluted and spread on agar plates. Viable bacteria (CFU) were counted and the rate and extent of killing were determined by plotting CFU/ml against time (D’Arezzo et al. [2012]; Lee et al. [2008]). This experiment was independently repeated three times.

[2] = tested on: 24-h biofilms of S. epidermidis ATCC 35984; assay: Rabbit subcutaneous S. epidermidis biofilm infection model; assay type: in vivo, New Zealand White rabbits; details: 6.3 μM (4 × MIC), 1 ml local injection at 0, 24, 48 h; 72 h exposure
Procedure: To test the effectiveness in vivo of H2-74 and H2-81, 24-h biofilms of S. epidermidis grown on polyethylene disks were imbedded subcutaneously into the New Zealand White rabbits and treated with the derivatives for 72 h in a modification of the method used previously (He et al. [2011]). Disks were cut from polyethylene 96-well plates (8 mm diameter, 1 mm thickness), sterilized with 75 % ethanol and placed in a Petri dish (100 mm diameter). An overnight culture of S. epidermidis ATCC 35984 (20 ml) was inoculated into the dish and incubated at 37 °C for 24 h. The disks covered with biofilms were then implanted subcutaneously in female New Zealand White rabbits (2.0–2.5 kg) that had been anesthetized with pentobarbital sodium (5 mg/kg i.v.). Four incisions (10 mm) were made on the back of the rabbit along the spine bilaterally after removal of fur, and the sub cutis was carefully dissected to form a 2-cm × 3-cm cavity. Two biofilm-covered polyethylene disks were implanted into each cavity, and to minimize the effect of between-animal variation, four different treatments were given locally to each rabbit.
Vancomycin (128 mg/l) and 0.1 % DMSO were administered as the controls. Twenty-four hours after the last treatment, the rabbits were euthanized and the implants were taken out with sterile forceps. Biofilms were scraped from the disks, and the viable bacteria were determined by CFU counting, as previously described (He et al. [2011]). All animals were housed and used in compliance with the guidelines of the Institute of Animal Care and Use Committee, and the protocol was approved by the committee.

Row | Compound | effect on growth in initial treatment phase [1] | viable cells ([1]; 2 × MIC (3.1 μM), 12 h) | viable cells ([1]; 4 × MIC (6.3 μM), 10 h) | viable bacteria recovered from implanted disks [2] | CFU remaining ([1]; 4 × MIC, 10 h, as restated in discussion)
1 | O=C(O)COc1ccc(C=C2SC(=Nc3ccc(Cl)cc3)N(c3ccc(Cl)cc3)C2=O)cc1 [H2-74, 2-{4-{[3-(4-chlorophenyl)-2-[(4-chlorophenyl)imino]-4-oxothiazolidin-5-ylidene}methyl}phenoxy}acetic acid] | inhibited the growth of S. epidermidis | 3.2 × 10^3 CFU/ml | more than 3.1 × 10^2 CFU/ml | 2.91 ± 0.42 log10 CFU/cm^2 | 
2 | O=C(O)c1ccc(-c2ccc(/C=C3\S/C(=N\c4ccccc4)N(c4ccc(F)cc4)C3=O)s2)cc1 [H2-81, 4-{5-{{3-(4-fluorophenyl)-2-[(4-phenyl)imino]-4-oxothiazolidin-5-ylidene}methyl}thiophene-2-yl}benzoic acid] | inhibited the growth of S. epidermidis | less than 3 × 10^2 CFU/ml | < 10 CFU/ml | 2.18 log10 CFU/cm^2 | ~ 10 CFU
